Data reported in PubChem BioAssay (NCI).
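Where inhibition never reached the appropriate level, the endpoint shown equals the highest concentration tested. Otherwise, values were interpolated linearly from a five-concentration, 48-hour dose response in 96-well plates. The concentration for full growth arrest is given as TGI.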

Columns and labels:
Assay in all cases: NCI-60 cell line screen, 48 h
[1] = system: MOLT-4 leukemia
[2] = system: CAKI-1 renal
[3] = system: OVCAR-3 ovarian
[4] = system: SK-OV-3 ovarian
[5] = system: MDA-MB-231 breast
[6] = system: SK-MEL-2 melanoma
[7] = system: SW-620 colon
[8] = system: 786-0 renal
[9] = system: RPMI-8226 leukemia
[10] = system: COLO 205 colon
[11] = system: SNB-19 CNS
[12] = system: RXF 393 renal
[13] = system: A498 renal
[14] = system: TK-10 renal
[15] = system: HCC-2998 colon
[16] = system: SF-268 CNS
[17] = system: CCRF-CEM leukemia
[18] = system: MDA-N
[19] = system: SF-539 CNS
[20] = system: ACHN renal
[21] = system: NCI-H460 lung
[22] = system: SK-MEL-28 melanoma
[23] = system: PC-3 prostate
[24] = system: KM12 colon
[25] = system: HOP-92 NSCLC
[26] = system: NCI-H23 lung
[27] = system: UACC-257 melanoma
[28] = system: UO-31 renal
[29] = system: UACC-62 melanoma
[30] = system: M14 melanoma
[31] = system: HL-60(TB) leukemia
[32] = system: K-562 leukemia
[33] = system: MDA-MB-435
[34] = system: EKVX NSCLC
[35] = system: HOP-62 NSCLC
[36] = system: NCI-H522 lung
[37] = system: NCI/ADR-RES ovarian
[38] = system: SR leukemia
[39] = system: HT29 colon
[40] = system: T-47D breast
[41] = system: SF-295 CNS
[42] = system: U251 CNS
[43] = system: HCT-116 colon
[44] = system: HS 578T breast
[45] = system: BT-549 breast
[46] = system: LOX IMVI melanoma
[47] = system: OVCAR-4 ovarian
[48] = system: A549 NSCLC
[49] = system: IGROV1 ovarian
[50] = system: HCT-15 colon
[51] = system: MCF7 breast
[52] = system: SK-MEL-5 melanoma
[53] = system: OVCAR-8 ovarian
[54] = system: DU-145 prostate
[55] = system: SNB-75 CNS
[56] = system: OVCAR-5 ovarian
[57] = system: MALME-3M melanoma
[58] = system: SN12C renal

Question: What does the source list for Cc1cccc2c(N)c3cccc(C(=O)NCCNCCN)c3nc12?
Answer: TGI [1]: > 96.1 µM; TGI [2]: 79.9 µM; TGI [3]: > 93.7 µM; TGI [4]: > 100 µM; TGI [5]: 36.1 µM; TGI [6]: 28.5 µM; TGI [7]: > 100 µM; TGI [8]: 16.9 µM; TGI [9]: > 90.1 µM; TGI [10]: > 33.4 µM; TGI [11]: 33.8 µM; TGI [12]: 36.1 µM; TGI [13]: > 55.9 µM; TGI [14]: 95.4 µM; TGI [15]: > 40.8 µM; TGI [16]: 1.27 µM; TGI [17]: > 100 µM; TGI [18]: 58.6 µM; TGI [19]: 22.4 µM; TGI [20]: > 100 µM; TGI [21]: 19.8 µM; TGI [22]: 36 µM; TGI [23]: > 100 µM; TGI [24]: > 100 µM; TGI [25]: > 71.8 µM; TGI [26]: 6.21 µM; TGI [27]: 99.3 µM; TGI [28]: 51.5 µM; TGI [29]: 39.8 µM; TGI [30]: > 100 µM; TGI [31]: > 100 µM; TGI [32]: > 100 µM; TGI [33]: > 78.8 µM; TGI [34]: > 94.6 µM; TGI [35]: > 46.3 µM; TGI [36]: 1.36 µM; TGI [37]: > 100 µM; TGI [38]: > 100 µM; TGI [39]: 91.2 µM; TGI [40]: > 86.1 µM; TGI [41]: > 100 µM; TGI [42]: > 24.5 µM; TGI [43]: > 42.6 µM; TGI [44]: 24.6 µM; TGI [45]: 33.3 µM; TGI [46]: 39.9 µM; TGI [47]: 19.1 µM; TGI [48]: 20.4 µM; TGI [49]: > 100 µM; TGI [50]: > 100 µM; TGI [51]: > 100 µM; TGI [52]: > 58.4 µM; TGI [53]: 17.8 µM; TGI [54]: > 72.4 µM; TGI [55]: 4.88 µM; TGI [56]: > 100 µM; TGI [57]: 36.2 µM

Question: Which TGI [1] does the source give for O=C(CC(O)(C(F)(F)F)C(F)(F)F)c1cccs1 here?
Answer: Its TGI is > 10 µM.

Question: What about the TGI [2] of the same compound?
Answer: Its TGI is > 10 µM.

Question: What about the TGI [3] of the same compound?
Answer: The TGI was > 10 µM.

Question: What about the TGI [4] of the same compound?
Answer: The TGI was > 10 µM.

Question: What about the TGI [5] of the same compound?
Answer: The TGI was > 10 µM.

Question: What about the TGI [7] of the same compound?
Answer: The TGI was > 10 µM.

Question: What about the TGI [8] of the same compound?
Answer: Its TGI is > 10 µM.

Question: And the TGI [9]?
Answer: The TGI was > 10 µM.

Question: And the TGI [10]?
Answer: Its TGI is > 10 µM.

Question: What about the TGI [11] of the same compound?
Answer: Its TGI is > 10 µM.

Question: What about the TGI [14] of the same compound?
Answer: Its TGI is > 10 µM.

Question: And the TGI [15]?
Answer: Its TGI is > 10 µM.

Question: And the TGI [16]?
Answer: Its TGI is > 10 µM.

Question: And the TGI [17]?
Answer: Its TGI is > 10 µM.

Question: And the TGI [18]?
Answer: Its TGI is > 10 µM.

Question: What about the TGI [19] of the same compound?
Answer: Its TGI is > 10 µM.

Question: What about the TGI [20] of the same compound?
Answer: The TGI was > 10 µM.

Question: And the TGI [22]?
Answer: The TGI was > 10 µM.

Question: What about the TGI [23] of the same compound?
Answer: The TGI was > 10 µM.

Question: What about the TGI [24] of the same compound?
Answer: The TGI was > 10 µM.

Question: What about the TGI [25] of the same compound?
Answer: Its TGI is > 10 µM.

Question: And the TGI [26]?
Answer: Its TGI is > 10 µM.

Question: And the TGI [27]?
Answer: Its TGI is > 10 µM.

Question: What about the TGI [29] of the same compound?
Answer: Its TGI is > 10 µM.

Question: What about the TGI [30] of the same compound?
Answer: Its TGI is > 10 µM.

Question: And the TGI [31]?
Answer: The TGI was > 10 µM.

Question: What about the TGI [32] of the same compound?
Answer: Its TGI is > 10 µM.

Question: And the TGI [33]?
Answer: Its TGI is > 10 µM.

Question: And the TGI [35]?
Answer: The TGI was > 10 µM.

Question: And the TGI [36]?
Answer: Its TGI is > 10 µM.

Question: And the TGI [37]?
Answer: The TGI was > 10 µM.

Question: And the TGI [38]?
Answer: The TGI was > 10 µM.

Question: And the TGI [39]?
Answer: The TGI was > 10 µM.

Question: And the TGI [40]?
Answer: Its TGI is > 10 µM.

Question: What about the TGI [41] of the same compound?
Answer: Its TGI is > 10 µM.

Question: What about the TGI [42] of the same compound?
Answer: Its TGI is > 10 µM.

Question: What about the TGI [43] of the same compound?
Answer: Its TGI is > 10 µM.

Question: And the TGI [44]?
Answer: The TGI was > 10 µM.

Question: What about the TGI [45] of the same compound?
Answer: Its TGI is > 10 µM.

Question: And the TGI [46]?
Answer: Its TGI is > 10 µM.

Question: What about the TGI [47] of the same compound?
Answer: The TGI was > 10 µM.

Question: What about the TGI [48] of the same compound?
Answer: The TGI was > 10 µM.

Question: And the TGI [49]?
Answer: The TGI was > 10 µM.

Question: What about the TGI [50] of the same compound?
Answer: Its TGI is > 10 µM.

Question: What about the TGI [51] of the same compound?
Answer: The TGI was > 10 µM.

Question: And the TGI [58]?
Answer: The TGI was > 10 µM.

Question: And the TGI [52]?
Answer: Its TGI is > 10 µM.

Question: And the TGI [53]?
Answer: Its TGI is > 10 µM.

Question: And the TGI [54]?
Answer: Its TGI is > 10 µM.

Question: What about the TGI [55] of the same compound?
Answer: The TGI was > 10 µM.

Question: And the TGI [57]?
Answer: Its TGI is > 10 µM.
